{
  "source": "ChEMBL document CHEMBL1201862",
  "about": "“PubChem BioAssay data set” (2004)",
  "assay_in_all_cases": "DTP human tumour cell line panel, 48 h",
  "key": {"[1]": {"system": "U-251"}, "[2]": {"system": "MDA-MB-231"}, "[3]": {"system": "SK-MEL-28"}, "[4]": {"system": "CCRF-CEM"}, "[5]": {"system": "UACC-257"}, "[6]": {"system": "UACC-62"}, "[7]": {"system": "SF-539"}, "[8]": {"system": "CAKI-1"}, "[9]": {"system": "786-0"}, "[10]": {"system": "RXF 393"}, "[11]": {"system": "MDA-N"}, "[12]": {"system": "SR"}, "[13]": {"system": "SK-MEL-2"}, "[14]": {"system": "COLO 205"}, "[15]": {"system": "BT-549"}, "[16]": {"system": "HT-29"}, "[17]": {"system": "OVCAR-3"}, "[18]": {"system": "Hs-578T"}, "[19]": {"system": "SK-MEL-5"}, "[20]": {"system": "SW-620"}, "[21]": {"system": "HCT-15"}, "[22]": {"system": "OVCAR-5"}, "[23]": {"system": "SNB-75"}, "[24]": {"system": "OVCAR-4"}, "[25]": {"system": "K562"}, "[26]": {"system": "HCC 2998"}, "[27]": {"system": "LOX IMVI"}, "[28]": {"system": "TK-10"}, "[29]": {"system": "M14"}, "[30]": {"system": "T47D"}, "[31]": {"system": "HL-60"}, "[32]": {"system": "HOP-62"}, "[33]": {"system": "DU-145"}, "[34]": {"system": "A549"}, "[35]": {"system": "PC-3"}, "[36]": {"system": "SN12C"}, "[37]": {"system": "HCT-116"}, "[38]": {"system": "KM12"}, "[39]": {"system": "SK-OV-3"}, "[40]": {"system": "SF-295"}, "[41]": {"system": "OVCAR-8"}, "[42]": {"system": "EKVX"}, "[43]": {"system": "A498"}, "[44]": {"system": "IGROV-1"}, "[45]": {"system": "HOP-92"}, "[46]": {"system": "NCI-H23"}, "[47]": {"system": "MCF7"}, "[48]": {"system": "MDA-MB-435"}, "[49]": {"system": "NCI/ADR-RES"}, "[50]": {"system": "SNB-19"}, "[51]": {"system": "NCI-H226"}, "[52]": {"system": "RPMI-8226"}, "[53]": {"system": "NCI-H522"}, "[54]": {"system": "UO-31"}, "[55]": {"system": "MOLT-4"}, "[56]": {"system": "ACHN"}, "[57]": {"system": "SF-268"}, "[58]": {"system": "Malme-3M"}},
  "note": "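In this assay, cells in 96-well plates receive the compound at five concentrations for 48 hours. Endpoints are linearly interpolated between the surrounding concentrations. GI50 = concentration required for 50% inhibition of growth.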 The source made the active and inactive calls. Cut-off read from the data, not from the text of the source: active = GI50 up to about 1.1 µM and inactive = higher.",
  "data": [
    {"smiles": "CC(=O)N(CCc1ccccc1)C(C)(C#N)c1ccccc1", "note": "(stereo not drawn)", "values": [
      {"measurement": "GI50", "setting": "[1]", "result": "> 100 µM (inactive)"},
      {"measurement": "GI50", "setting": "[2]", "result": "> 100 µM (inactive)"},
      {"measurement": "GI50", "setting": "[3]", "result": "> 100 µM (inactive)"},
      {"measurement": "GI50", "setting": "[4]", "result": "> 100 µM (inactive)"},
      {"measurement": "GI50", "setting": "[5]", "result": "> 100 µM (inactive)"},
      {"measurement": "GI50", "setting": "[6]", "result": "> 100 µM (inactive)"},
      {"measurement": "GI50", "setting": "[7]", "result": "> 100 µM (inactive)"},
      {"measurement": "GI50", "setting": "[8]", "result": "> 100 µM (inactive)"},
      {"measurement": "GI50", "setting": "[9]", "result": "> 100 µM (inactive)"},
      {"measurement": "GI50", "setting": "[10]", "result": "> 100 µM (inactive)"},
      {"measurement": "GI50", "setting": "[11]", "result": "> 100 µM (inactive)"},
      {"measurement": "GI50", "setting": "[12]", "result": "> 100 µM (inactive)"},
      {"measurement": "GI50", "setting": "[13]", "result": "> 100 µM (inactive)"},
      {"measurement": "GI50", "setting": "[14]", "result": "> 100 µM (inactive)"},
      {"measurement": "GI50", "setting": "[15]", "result": "> 100 µM (inactive)"},
      {"measurement": "GI50", "setting": "[16]", "result": "> 100 µM (inactive)"},
      {"measurement": "GI50", "setting": "[17]", "result": "> 100 µM (inactive)"},
      {"measurement": "GI50", "setting": "[18]", "result": "> 100 µM (inactive)"},
      {"measurement": "GI50", "setting": "[19]", "result": "> 100 µM (inactive)"},
      {"measurement": "GI50", "setting": "[20]", "result": "> 100 µM (inactive)"},
      {"measurement": "GI50", "setting": "[21]", "result": "> 100", "unit": "µM"},
      {"measurement": "GI50", "setting": "[22]", "result": "> 100 µM (inactive)"},
      {"measurement": "GI50", "setting": "[23]", "result": "> 100 µM (inactive)"},
      {"measurement": "GI50", "setting": "[24]", "result": "> 100 µM (inactive)"},
      {"measurement": "GI50", "setting": "[25]", "result": "> 100 µM (inactive)"},
      {"measurement": "GI50", "setting": "[26]", "result": "> 100 µM (inactive)"},
      {"measurement": "GI50", "setting": "[27]", "result": "> 100 µM (inactive)"},
      {"measurement": "GI50", "setting": "[28]", "result": "> 100 µM (inactive)"},
      {"measurement": "GI50", "setting": "[29]", "result": "> 100 µM (inactive)"},
      {"measurement": "GI50", "setting": "[30]", "result": "> 100 µM (inactive)"},
      {"measurement": "GI50", "setting": "[31]", "result": "> 100 µM (inactive)"},
      {"measurement": "GI50", "setting": "[32]", "result": "> 100 µM (inactive)"},
      {"measurement": "GI50", "setting": "[33]", "result": "> 100 µM (inactive)"},
      {"measurement": "GI50", "setting": "[34]", "result": "> 100 µM (inactive)"},
      {"measurement": "GI50", "setting": "[35]", "result": "> 100 µM (inactive)"},
      {"measurement": "GI50", "setting": "[36]", "result": "> 100 µM (inactive)"},
      {"measurement": "GI50", "setting": "[37]", "result": "> 100 µM (inactive)"},
      {"measurement": "GI50", "setting": "[38]", "result": "> 100 µM (inactive)"},
      {"measurement": "GI50", "setting": "[39]", "result": "> 100 µM (inactive)"},
      {"measurement": "GI50", "setting": "[40]", "result": "> 100 µM (inactive)"},
      {"measurement": "GI50", "setting": "[41]", "result": "> 100 µM (inactive)"},
      {"measurement": "GI50", "setting": "[42]", "result": "> 100 µM (inactive)"},
      {"measurement": "GI50", "setting": "[43]", "result": "> 100 µM (inactive)"},
      {"measurement": "GI50", "setting": "[44]", "result": "> 100 µM (inactive)"},
      {"measurement": "GI50", "setting": "[45]", "result": "> 100 µM (inactive)"},
      {"measurement": "GI50", "setting": "[46]", "result": "> 100 µM (inactive)"},
      {"measurement": "GI50", "setting": "[47]", "result": "> 100 µM (inactive)"},
      {"measurement": "GI50", "setting": "[48]", "result": "> 100 µM (inactive)"},
      {"measurement": "GI50", "setting": "[49]", "result": "> 100 µM (inactive)"},
      {"measurement": "GI50", "setting": "[50]", "result": "> 100 µM (inactive)"},
      {"measurement": "GI50", "setting": "[51]", "result": "> 100 µM (inactive)"},
      {"measurement": "GI50", "setting": "[52]", "result": "> 100 µM (inactive)"},
      {"measurement": "GI50", "setting": "[53]", "result": "> 100 µM (inactive)"},
      {"measurement": "GI50", "setting": "[54]", "result": "> 100 µM (inactive)"},
      {"measurement": "GI50", "setting": "[55]", "result": "> 100 µM (inactive)"},
      {"measurement": "GI50", "setting": "[56]", "result": "> 100 µM (inactive)"},
      {"measurement": "GI50", "setting": "[57]", "result": "> 100 µM (inactive)"},
      {"measurement": "GI50", "setting": "[58]", "result": "> 100 µM (inactive)"}
    ]}
  ]
}
